Experimental data published in patent US12358941B2, “Lipidic analogs of anti-cancer stem cell agent” (VIRGINIA COMMONWEALTH UNIVERSITY, priority 2019, dated 2025).
Where “and” joins values, the source holds several entries; their conditions need not be identical. Equal entries are not always repeated. Entries after “also recorded” stand apart in the source; their conditions may differ. Where two headings read alike, the source gives them in different places. Each block holds one molecule with its values, some of them ahead of it.

Tests used:
[1] = test system: activated partial thromboplastin time (APTT), human plasma; assay: APTT clotting assay in human plasma; type: biochemical; conditions: for Concentration required to double APTT: citrated human plasma; for Safety Index: APTT doubling concentration vs HT-29 CSC IC50
Method: Glycosaminoglycans, especially heparin/HS, are known for their ability to inhibit the coagulation system. Because G2.2 and its lipid analogs are mimetics of GAGs, it is important to study their effects on the coagulation system. We measured the concentration of lipid-modified G2.2 analogs required to double the activated partial thromboplastin time (APTT; Table 4). The experiments were performed as described in earlier work [Henry, B. L., et al. Blood Coag Fibrinol 2009, 20, 27-34]. Briefly, a standard one-stage recalcification assay in a BBL Fibrosystem fibrometer (Becton-Dickinson, Sparles, MD) was used to measure clotting times in human plasma. A 10 μL aqueous solution of the lipidic analog at a desired concentration was mixed with 90 μL of citrated human plasma and 100 μL of prewarmed APTT reagent. After incubation for 4 min at 37° C., clotting was initiated by adding 100 μL of prewarmed 25 mM CaCl2), and the time to clot was noted. The concentration of the analog required to double the clotting time was calculated from the clotting time versus concentration profile. In general, cholesterol modification of G2.2 increased its anticoagulation potency.

HT-29 spheroids (CSCs) = assay: Primary spheroids inhibition assay, HT-29; type: cell-based
Method: (§1) The inhibitory potential of lipid-modified compounds of Formula I against CSCs was tested using a primary spheroids inhibition assay in various cancer cell lines including HT-29, RKO, HCT-116, LS1034, HC-15, WiDr, SW480, COLO205, NCI-H508, SW1116, LS174T, KM12 etc. Cells were grown both under monolayer and spheroid conditions as described in earlier work [Patel, N. J., et al. ACS Chem. Biol. 2014, 9, 1826-1833]. For primary sphere assay, cells were plated in non-treated, low adhesion, 96 wells plate at the concentration of 100 cells/100 μL/well in stem cell media (SCM) that consisted of DMEM:F12:AA, supplemented with 1×B27, 20 ng/mL epidermal growth factor, and 10 ng/mL fibroblast growth factor. After 4 h of incubation, vehicle (control) or G2.2 and its lipid analogs at the desired concentrations were added to each well (at least in triplicates for each sample). On day five, numbers of spheres ranging from 50 to 150 micrometers in diameter were counted using phase contrast microscope and percent inhibition was calculated compared to control. For monolayer assay, approximately 2.5×10^3 cells/100 μL/well were plated in 96-well tissue culture treated plate. After overnight incubation at 37° C. vehicle (control) or G2.2 was added at the desired concentration and the cells were further incubated for 60-72 h. At the end of the incubation, 10 μL of 5 mg mL^−1 MTT solution ((3-(4,5-dimethylthiazol-2-yl)-2,5-diphenyltetrazolium bromide, Sigma) made in phosphate buffered saline (PBS) (Gibco) was added to each well and incubated for minimum of 2 to 3 h until crystals formation was observed. Following this, 150 μL of 4 mM HCl (Sigma) in isopropanol solution was added dropwise to each well and the mixture was triturated until the crystals dissolve completely. Finally, the plate was placed on the spectrophotometer reader and read at 590 nm and growth inhibition was calculated as percent of control.

HT-29 cells (monolayer) = assay: Monolayer MTT growth assay, HT-29; type: cell-based; conditions: HT-29 monolayer growth
Method: as §1

[2] = Pharmacokinetics in rats, plasma concentration by fluorimetry; type: in vivo, Sprague-Dawley rats
Method: The animal protocol was approved by the Institutional Animal Care and Use Committee at VCU. Adult male Sprague-Dawley rats weighing 250-275 g were acclimatized for over 3 days with free access to standard rat diet and tap water. Animals were then placed on overnight fasting (i.e., without diet, but with free access to water) on a day before the PK studies. Each animal was anesthetized with an IP injection of urethane and an aliquot (0.1 mL) of blood was withdrawn as a prior-to-dosing or time 0 sample from the jugular vein with a use of 0.11 M sodium citrate (0.01 mL) as anti-coagulant. Rats (n=4 or 5) received G2.2 or IIb via IV injection or PO administration, while one animal received G2.2 via IP bolus injection. G2.2 and IIb were dissolved in sterile saline (0.1 mL IV and IP; 0.2 mLs PO). A series of blood aliquots (0.1 mL) were sampled from the jugular vein at different time points over 0 to 8 h. The blood samples were immediately centrifuged at 11,750 g for 3 min to yield the plasma samples, which were then stored at −70° C. At the conclusion of PK studies, all rats were euthanized by exsanguination under the surgical anesthesia.
The concentrations of G2.2 and lipid analogs in plasma were determined by the quantitative fluorimetry assay in which plasma samples were first diluted 2-fold (v/v) with 0.05 M PBS (pH 7.4), then an equal volume of methanol added and the mixture centrifuged at 11,750 g for 5 min. The supernatants were transferred to black 96 well-plates and the fluorescence at 528 nm (G2.2) or 460 nm (lipid analog) (λEX=340 nm) read using a microplate reader. Reference profiles, prepared for concentrations in the range of 0.5 and 50 μg/mL (R^2=0.98-0.99), were used to calculate plasma concentration at every time point.
The PK profile was analyzed using conventional analysis. The parameters deduced included peak plasma concentration (Cmax), the time required to reach Cmax (Tmax), the plasma concentration-time curve (AUC0-∞), the terminal half-life (t1/2), the apparent clearance (CL/F) and the apparent pseudo-steady state volume of distribution (Vpss/F). The absolute bioavailability (F) was deduced for G2.2, while relative bioavailability was deduced for lipid analogs.

RKO colon spheroids = assay: Primary spheroids inhibition assay, RKO; type: cell-based; conditions: FIG. 6
Method: The inhibitory potential of lipid-modified compounds of Formula I against CSCs was tested using a primary spheroids inhibition assay in various cancer cell lines including HT-29, RKO, HCT-116, LS1034, HC-15, WiDr, SW480, COLO205, NCI-H508, SW1116, LS174T, KM12 etc. Cells were grown both under monolayer and spheroid conditions as described in earlier work [Patel, N. J., et al. ACS Chem. Biol. 2014, 9, 1826-1833]. […] On day five, numbers of spheres ranging from 50 to 150 micrometers in diameter were counted using phase contrast microscope and percent inhibition was calculated compared to control. […] At the end of the incubation, 10 μL of 5 mg mL^−1 MTT solution ((3-(4,5-dimethylthiazol-2-yl)-2,5-diphenyltetrazolium bromide, Sigma) made in phosphate buffered saline (PBS) (Gibco) was added to each well and incubated for minimum of 2 to 3 h until crystals formation was observed. Following this, 150 μL of 4 mM HCl (Sigma) in isopropanol solution was added dropwise to each well and the mixture was triturated until the crystals dissolve completely. Finally, the plate was placed on the spectrophotometer reader and read at 590 nm and growth inhibition was calculated as percent of control.

[3] = test system: cancerous tissue-derived primary human spheroids; assay: Patient-derived spheroid growth, cancerous colon tissue; type: cell-based; conditions: 5 μM
[4] = test system: normal colon tissue spheroids; assay: Patient-derived spheroid growth, normal colon tissue; type: cell-based, human; conditions: 5 μM
[5] = test system: CSC-induced HT-29 xenografts; assay: CSC-induced HT-29 xenograft model; type: in vivo
Method: Briefly, the protocols were approved by the Animal Component of Research Protocol Committee at McGuire VA Medical Center, Richmond, VA Xenografts were generated by injecting 10^5 CD133 hi/CXCR4hi (Dual hi) fluorescence-activated cell sorter (FACS) isolated HT29 cells suspended in 50% reduced growth factor Matrigel (BD Bioscience; in 50 μL sterile PBS) into the right flank of 6-week-old, female NCr nude mice (Taconic Farms) subcutaneously.
Once the tumors reached 50 mm^3, mice were randomized to either of the three groups (vehicle, 200 mg/kg G2.2, or 100 mg/kg IIb) and dosed i.p three times a week for three weeks. Tumor measurements on each animal were made 3 times a week with Vernier calipers, and tumor volume was calculated using the formula: V=W^2 (L)/2, where V is the volume in mm^3, and W and L are the width and length in mm. […] The remainder of animals were monitored till they reached predefined humane end-points. Animals were sacrificed per Institutional Animal Care and Use Committee—approved methods of euthanasia.

[6] = test system: xenografts-derived cells (HT-29), 3° spheroids; assay: Ex vivo tertiary spheroid formation of xenograft-derived cells; type: cell-based; conditions: cells from treated xenografts, a week after last dose
Excerpt: We also utilized our earlier observation that CSCs/progenitors are enhanced several-fold in spheroid culture and assessed the xenografts-derived cells for retention of tertiary spheroid growth inhibition profiles to distinguish between non self-renewing progenitors and self-renewing CSCs ex vivo.

[7] = background statement; cited from earlier work
[8] = HT-29 CSCs, Table 4, read-out: IC50 (HT-29 CSCs)
[9] = HT-29 spheroid growth, read-out: Spheroid IC50

- Concentration required to double APTT [1]: 2.5 µM
Molecule: Enoxaparin [reference compound]

Molecule: CC(C)CCCC(C)C1CCC2C3CC=C4CC(OCCCCCCCCOc5cc(-c6oc7cc(OS(=O)(=O)[O-])cc(OCCCOc8cc(OS(=O)(=O)[O-])cc9oc(-c%10ccc(OS(=O)(=O)[O-])c(OS(=O)(=O)[O-])c%10)c(OS(=O)(=O)[O-])c(=O)c89)c7c(=O)c6OS(=O)(=O)[O-])ccc5OS(=O)(=O)[O-])CCC4(C)C3CCC12C.[Na+].[Na+].[Na+].[Na+].[Na+].[Na+].[Na+] (centres unmarked) [IIc]
- Safety Index [1]: 63-fold
- Concentration required to double APTT [1]: 50 µM
- IC50 (HT-29 spheroids (CSCs); [8]): 0.8 ± 0.2 µM
- IC50 (HT-29 spheroids (CSCs); [9]): 0.8 ± 0.2 µM
- Monolayer IC50 (HT-29 cells (monolayer)): 1079 ± 15%
- absorption compared with G2.2 ([2]; PO, rats): far greater than that for G2.2

Molecule: CC(C)CCCC(C)C1CCC2C3CC=C4CC(OCCCCCOc5cc(-c6oc7cc(OS(=O)(=O)[O-])cc(OCCCOc8cc(OS(=O)(=O)[O-])cc9oc(-c%10ccc(OS(=O)(=O)[O-])c(OS(=O)(=O)[O-])c%10)c(OS(=O)(=O)[O-])c(=O)c89)c7c(=O)c6OS(=O)(=O)[O-])ccc5OS(=O)(=O)[O-])CCC4(C)C3CCC12C.[Na+].[Na+].[Na+].[Na+].[Na+].[Na+].[Na+] (centres unmarked) [IIb]
- inhibition of RKO colon spheroids (RKO colon spheroids): dose-dependent inhibition
- Safety Index [1]: 6-fold
- Concentration required to double APTT [1]: 48 µM
- inhibition of spheroid growth formation, cancerous tissue [3]: significantly inhibited
- effect on spheroid growth formation, normal tissue [4]: without any effect
- decrease in tumor volume compared with vehicle controls ([5]; 100 mg/kg i.p., 3 times a week x 3 weeks, end of treatment): > 80%
- gross toxicity (animal body weight) ([5]; 100 mg/kg i.p., nude mice): did not show any gross toxic effects; also recorded: no gross toxicity
- CSC markers (DCLK1, LGR5) and self-renewal factor (BMI-1), western blot of xenografts ([5]; 100 mg/kg i.p., vs vehicle): robust reduction; also recorded: reduction in CSC markers
- tumor volume compared to vehicle treated mice ([5]; 100 mg/kg, i.p.): significant reduction in tumor volume
- effect on tumor volume compared to G2.2 (200 mg/kg) ([5]; IIb 100 mg/kg i.p.): > 2 fold
- CSC markers, flow cytometry analysis of mice xenografts ([5]; IIb treated mice): reduction in CSC markers
- in vivo potency relative to G2.2 ([5]; overall in vivo studies): ~4 fold
- IC50 (HT-29 spheroids (CSCs); [8]): 8.2 ± 1.5 µM
- IC50 (HT-29 spheroids (CSCs); [9]): 8.2 ± 1.5 µM
- IC50 (HT-29 cells (monolayer)): > 500 µM
- peaks in the plasma concentration vs. time profile ([2]; PO nominal 50 mg/kg, rats, 0-8 h): At least 2
- decrease in 3° spheroid formation vs vehicle controls [6]: 2.6 fold

Molecule: O=c1c(OS(=O)(=O)O)c(-c2ccc(OS(=O)(=O)O)c(OS(=O)(=O)O)c2)oc2cc(OS(=O)(=O)O)cc(OCCCOc3cc(OS(=O)(=O)O)cc4oc(-c5ccc(OS(=O)(=O)O)c(OS(=O)(=O)O)c5)c(OS(=O)(=O)O)c(=O)c34)c12 [Compound G2.2]
- inhibition of RKO colon spheroids (RKO colon spheroids): dose-dependent inhibition
- Safety Index [1]: 22-fold
- Concentration required to double APTT [1]: 640 µM
- half-life [7]: 4 h
- oral bioavailability [7]: < 1%
- IC50 (HT-29 spheroids (CSCs); [8]): 29 ± 1 µM
- IC50 (HT-29 spheroids (CSCs); [9]): 29 ± 1 µM
- IC50 (HT-29 cells (monolayer)): > 500 µM
- distribution phase ([2]; G2.2 IV bolus 50 mg/kg, rats): about 1.5 hours
- AUC0-∞ (area under the plasma concentration v/s time curve) ([2]; IP 200 mg/kg, rat): 6398 µg·h/mL
- Cmax ([2]; IP 200 mg/kg, rat): 925 µM
- Cmax (maximum plasma concentration) ([2]; IP 200 mg/kg, rat): ~1350 µg/mL
- t1/2 (terminal half-life) ([2]; IP 200 mg/kg, rat): 3 h
- F (absolute bioavailability) ([2]; IP 200 mg/kg, rat, 200 mg/kg): 30%
- terminal half-life ([2]; IV bolus 50 mg/kg, rats): 4.4 h
- AUC0-∞ (area under the plasma concentration v/s time curve) ([2]; PO 200 mg/kg, rats): 584 µg·h/mL
- Cmax ([2]; PO 200 mg/kg, rats): 55.6 µM
- t1/2 (terminal half-life) ([2]; PO 200 mg/kg, rats): 4.6 h
- Cmax (maximum plasma concentration) ([2]; PO 200 mg/kg, rats, 200 mg/kg): 81.2 µg/mL and 81 µg/mL
- F (absolute bioavailability) ([2]; PO 200 mg/kg, rats, 200 mg/kg): 3%
